According to patent US20250268889A1, “COMPOUNDS AND COMBINATIONS THEREOF FOR TREATING NEUROLOGICAL AND PSYCHIATRIC CONDITIONS” (priority 2022, published 2025):
Where two headings read alike, the source gives them in different places.

Columns and labels:
[1] = Pharmacokinetics in moderate hepatic impairment vs matched healthy subjects; conditions: patients having moderate hepatic impairment (Group 2)
Excerpt: (§1) Data are GMRs and 90% CIs. References used are the matched healthy subjects for renal and hepatic impairment studies, and extensive or ultra-extensive CYP2D6 metabolizers respectively.

[2] = Solubility of the powder in water
[3] = Pharmacokinetics of the subject combination (steady state); conditions: for changes in AUC and Cmax with dose (dose proportionality): steady state, co-administered with bupropion; for AUC0-12 relative to that of bupropion / Cmax relative to peak level of bupropion: metabolite; for apparent elimination half-life: metabolites of bupropion
[4] = Pharmacokinetics in moderate renal impairment vs matched controls
Excerpt: as §1

[5] = Effect of food on pharmacokinetics of the subject combination; conditions: subject combination administered with food
[6] = Effect of concomitant 20 mg paroxetine on dextromethorphan exposure (Example 6); conditions: tablet of Example 4 twice daily, vs without paroxetine
[7] = Co-administration of paroxetine and the subject combination in healthy volunteers (Example 3); conditions: 29 healthy volunteers; paroxetine co-administered with the subject combination
[8] = Pharmacokinetics in CYP2D6 poor metabolizers vs extensive metabolizers
Excerpt: Approximately 7% to 10% of Caucasians and 3% to 8% of African Americans lack the capacity to metabolize CYP2D6 substrates and are classified as poor metabolizers.
as §1

[9] = system: patients with treatment-resistant depression or MDD; conditions: cited from earlier work
[10] = human, in vivo
plasma protein = assay: Plasma protein binding; conditions: metabolite
[11] = after administration of the subject combination
[12] = 7 subjects with moderate (GFR 30-60 mL/min) renal impairment vs 6 matched controls
[13] = patients having moderate renal impairment

CC(NC(C)(C)C)C(=O)c1cccc(Cl)c1.Cl (racemic) [bupropion, (±)-1-(3-chlorophenyl)-2-[(1,1-dimethylethyl)amino]-1-propanone hydrochloride]
AUC0-12 and Cmax compared with healthy patients [1]: not significantly different | solubility in water [2]: highly soluble | median Tmax [3, 11]: about 2 hours | increase in AUC0-12 ([4]; human, in vivo): 1.80 fold | increase in Cmax ([4]; human, in vivo): 1.87 fold | increase of exposure ([4]; human, in vivo): approximately 2 fold | reduction of clearance ([4]; human, in vivo): 50%

Br.COc1ccc2c(c1)[C@]13CCCC[C@@H]1[C@H](C2)N(C)CC3 [dextromethorphan, morphinan, 3-methoxy-17-methyl-, (9α, 13α, 14α), hydrobromide monohydrate]
AUC0-12 and Cmax compared with healthy patients [1]: not significantly different | change of Cmax with food [5]: unchanged | decrease of AUC0-12 with food [5]: 14% | solubility in water [2]: sparingly soluble | increase of AUC0-12 with concomitant paroxetine [6]: 2.69 fold | increase of Cmax with concomitant paroxetine [6]: 2.38 fold | increase of mean elimination half-life compared to dextromethorphan given without bupropion ([3]; following 8 days of administration of the subject combination in extensive metabolizers): approximately 3 fold | changes in AUC and Cmax with dose (dose proportionality) ([3]; varying doses of bupropion (75 to 150 mg)): less than dose-proportional | changes in AUC and Cmax with dose (dose proportionality) ([3]; varying doses of dextromethorphan (30 to 60 mg)): greater than dose-proportional | accumulation ratio at steady state based on AUC0-12 ([3]; subject combination): about 32 | accumulation ratio at steady state based on Cmax ([3]; subject combination): about 20 | increase of overall exposure by paroxetine [7]: 2.5 fold | increase of exposure [4, 12]: approximately 2 fold | reduction of clearance [4, 12]: 50% | increase in AUC0-12 [4, 13]: 2.21 fold | increase in Cmax [4, 13]: 2.10 fold | increase in AUC0-12 compared to extensive metabolizers ([8]; 3 poor metabolizers): ~3.4 fold | increase in Cmax compared to extensive metabolizers ([8]; 3 poor metabolizers): ~3 fold | steady state plasma concentrations compared to non-poor metabolizers ([8]; 12 poor metabolizers treated in efficacy trials): generally higher

CC(NC(C)(C)C)C(O)c1cccc(Cl)c1 (centres unmarked) [erythrohydroxybupropion]
AUC0-12 relative to that of bupropion [3, 11]: about 1.2 times | Cmax relative to peak level of bupropion [3, 11]: approximately equal to | apparent elimination half-life [3]: ~44 h

CN[C@]1(c2ccccc2Cl)CCCCC1=O [esketamine, Esketamine]
Incidence of Sedation (MOAA/S score <5) ([9]; 56 mg + oral AD, patients <65 years with TRD, fixed-dose study): 50% | Incidence of Sedation (MOAA/S score <5) ([9]; 84 mg + oral AD, patients <65 years with TRD, fixed-dose study): 61% | Incidence of Sedation (MOAA/S score <5) ([9]; 28 to 84 mg + oral AD, patients ≥65 years with TRD, flexible-dose study): 49% | incidence of sedation (MOAA/S score <5) compared to placebo plus oral antidepressant ([9]; adults with MDD with acute suicidal ideation or behavior): higher incidence of sedation

C[C@H]1NC(C)(C)CO[C@]1(O)c1cccc(Cl)c1 [hydroxybupropion]
AUC0-12 relative to that of bupropion [3, 11]: about 19 times | Cmax relative to peak level of bupropion [3, 11]: approximately 14 times | apparent elimination half-life [3]: approximately 35 hours

Fc1ccc([C@@H]2CCNC[C@H]2COc2ccc3c(c2)OCO3)cc1 [paroxetine]
increase of overall exposure when co-administered with the subject combination [10]: 1.2 fold

C[C@H](NC(C)(C)C)[C@@H](O)c1cccc(Cl)c1 [threohydroxybupropion]
AUC0-12 relative to that of bupropion [3, 11]: about 7 times | Cmax relative to peak level of bupropion [3, 11]: about 5 times | apparent elimination half-life [3]: ~33 h | extent of protein binding compared with bupropion (plasma protein): about half that seen with bupropion
